Key:
[1] = system: MCF-7 tumors; test: MCF-7 tumors in mammary fat pads of athymic nude mice, tamoxifen treatment after removal of estrogen pellet; type: in vivo; conditions: athymic nude mice with MCF-7 tumors; estrogen pellets removed, treated with tamoxifen; later tumors became resistant and growth resumed
Description: (§1) MCF-7 tumors were inoculated into the mammary fat pads of athymic nude mice supplemented with an estrogen pellet as described previously (Osborne et al., 1985) until tumors arose. The estrogen pellets were removed and the animals were treated with tamoxifen. […] Invariably, however, after initial growth suppression, the tumors became resistant and growth resumed. Animals were sacrificed at various times to obtain cells from estrogen-stimulated (ES) tumors prior to tamoxifen treatment, from tamoxifen-sensitive (TS) tumors during tamoxifen treatment but prior to acquired resistance, and from tamoxifen-resistant (TR) tumors after tumor growth had resumed.

[2] = system: VEGF; test: cDNA expression array of MCF-7 tumors (estrogen-stimulated, tamoxifen-sensitive, tamoxifen-resistant); type: in vivo, human; conditions: breast cancers treated with tamoxifen in comparison with estrogen-stimulated breast cancer; FIG. 6
Description: as §1
(§2) RNA was prepared from these tumors (n=5 tumors per group) using RNeasy kits (Qiagen Inc., Valencia, Calif.), and mRNA was isolated on Dynabeads (Dyne, Oslo, Norway) according to manufacturer's instructions. […]
(§3) The controls, which were more difficult to quantitate reliably, were not included in the statistical analyses. […]
(§4) Principal Components Analysis (PCA) of mean-centered log-transformed data, based on the variance-covariance matrix (Tatsuoka, 1971), was then used to standardize across the three hybridizations and to extract three new axes (components P1, P2, and P3), expressed as linear combinations of the original axes (ES, TS, and TR). […]

[3] = system: bFGFR; test: as above; type: in vivo, human; conditions: breast cancers treated with tamoxifen in comparison with estrogen-stimulated breast cancer; FIG. 6
Description: as §1, §2, §3, §4

In the case of `CC/C(=C(\c1ccccc1)c1ccc(OCCN(C)C)cc1)c1ccccc1` [tamoxifen], the Tumor volumes [1] is reported as “declined and remained stable for several months”, the VEGF expression [2] is reported as “decreased expression” and the bFGFR expression [3] is reported as “decreased expression”.

From patent US20020164663A1, “Methods and compositions for detection, diagnosis and prediction of antiestrogen-resistant breast cancer” (BOARD OF REGENTS, THE UNIVERSITY OF TEXAS SYSTEM, priority 1998, published 2002)
